The values below are quoted from earlier work in patent US12653950B2, “Predictive biological homeostasis” (priority 2020, dated 2026).

For data set [1] the following is noted: in vivo.
The subject of the next data set is NF-κB. The conditions noted are these: pro-inflammatory signaling pathway involved in Lyme-induced inflammation.
Assay in data set [2]: not given
This is another data set of the same source.

For another data set, the system named is Borrelia burgdorferi. The conditions noted are these: one animal study (Pothineni et al. 2020).

As to `Nc1nc2c(ncn2COCCO)c(=O)[nH]1` [Acyclovir], the “toxic side effects in the kidneys” value in data set [1] is on record as “toxic side effects in the kidneys”.
On to `COc1cc(/C=C/C(=O)CC(=O)/C=C/c2ccc(O)c(OC)c2)ccc1O` [Curcumin], for which the “activation of NF-κB” value with NF-κB is reported as “blocking the activation”.
With `O=c1c(O)c(-c2ccc(O)c(O)c2)oc2cc(O)cc(O)c12` [Quercetin], the solubility in water result is listed as “poorly soluble”. The “stability in physiological systems” value in data set [2] was “unstable”.
As to `CC1(C)S[C@@H]2[C@H](NC(=O)[C@H](NC(=O)N3CCNC3=O)c3ccccc3)C(=O)N2[C@H]1C(=O)O` [azlocillin], the “killing of disease-causing bacteria Borrelia burgdorferi” value with Borrelia burgdorferi was “completely kills off”.
